Test results taken from patent US8022029B2, “Fabric softening compositions comprising polymeric materials” (priority 2007, dated 2011).

Columns and labels:
[1] = Proportion of perfume extracted from esterquat aggregates to polymeric material fibers (dosing by HPLC); type: physicochemical; conditions: 16 hours
Experimental: (§1) The capsules were then reformulated with a copolymer of polyether and polyurethane-polyurea (commercially available as Lycra) polymeric fiber material. […] The containers were shacked for 16 hours to allow the systems to equilibrate. The polymeric material was then removed, and the esterquat was tested for perfume molecule content (via dosing by HPLC).

[2] = type: physicochemical
Experimental: (§2) Polystyrene cross-linked with divinyl benzene was explored as the polymeric material. The partition coefficient of perfume molecules between such cross-linked polystyrene coated with an aminoplast shell (commercially available as Serdolit III) and esterquat was evaluated.

[3] = type: physicochemical; remark: listed apart in the source
Experimental: as §1, §2

[4] = Table 4; cited from earlier work
[5] = 1.0 g polymeric material in 100 g softener (3.6% esterquat, 0.38% perfume)
[6] = 3.1 g polymeric material in 100 g softener (3.6% esterquat, 0.38% perfume)
[7] = 5.0 g polymeric material in 100 g softener (3.6% esterquat, 0.38% perfume)

| SMILES | proportion of perfume absorbed by the polymeric material [1, 5] | proportion of perfume absorbed by the polymeric material [1, 6] | proportion of perfume absorbed by the polymeric material [1, 7] | Partition Coefficient of Polystyrene Material [2] | Partition Coefficient of Copolymer of polyether and polyurethane [3] | Log P [4] |
| --- | --- | --- | --- | --- | --- | --- |
| C=CCc1ccc(O)c(OC)c1 [Eugenol, eugenol] | 0.24 | 0.45 | 0.57 | 6.7 | 1.0 |  |
| CCCCCCOC(=O)c1ccccc1O [Hexyl Salicylate, hexyl salicylate] | 0.34 | 0.63 | 0.69 | 6.7 | 1.4 | 5.26 |
| C=CC(C)(O)CCC=C(C)C (stereo not shown) [Linalool, linalool] |  |  |  |  |  | 2.43 |
| CC(C)=CCC/C(C)=C\CO [Nerol, nerol] |  |  |  |  |  | 2.65 |
| CC(CCO)CCc1ccccc1 (stereo not shown) [Phenyl Hexanol, phenyl hexanol] | 0.26 | 0.51 | 0.60 |  |  |  |
